The source of these data is patent publication US10287258B2, “Certain (2S)-N-[(1S)-1-cyano-2-phenylethyl]-1,4-oxazepane-2-carboxamides as dipeptidyl peptidase 1 inhibitors” (AstraZeneca AB, priority 2014, dated 2019).

In the first assay the target is recombinant human DPP1 (rhDPP1) (Homo sapiens (Human), UniProt P53634). Kind of assay: Test A1: Fluorescence assay for recombinant human (RH) DPP1. In kind it is biochemical. As to conditions: Test A1 (Examples 1-35); rhDPP1 ~50 pM, 100 μM H-Gly-Arg-AMC, pH 5.0, 22° C. On the procedure: Test A1: Fluorescence Assay for Recombinant Human (RH) DPP1
Sequence of recombinant human DPP1 (rhDPP1) (P53634 231-394): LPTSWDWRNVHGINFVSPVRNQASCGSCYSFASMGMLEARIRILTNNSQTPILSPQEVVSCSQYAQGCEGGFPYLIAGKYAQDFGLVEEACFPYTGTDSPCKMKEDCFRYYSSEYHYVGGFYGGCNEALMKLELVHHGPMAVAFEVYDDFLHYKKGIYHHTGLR
Sequence of recombinant human DPP1 (rhDPP1) (P53634 25-134): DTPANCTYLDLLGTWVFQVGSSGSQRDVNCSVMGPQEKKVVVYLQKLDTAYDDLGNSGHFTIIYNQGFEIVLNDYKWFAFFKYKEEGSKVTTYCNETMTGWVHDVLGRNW
Sequence of recombinant human DPP1 (rhDPP1) (P53634 395-463): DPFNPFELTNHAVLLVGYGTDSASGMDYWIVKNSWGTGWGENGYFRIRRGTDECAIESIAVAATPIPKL
The activity of DPP1 was determined by measuring the enzymatic release of aminomethyl coumarin (AMC) from the peptide substrate (H-Gly-Arg-AMC), which leads to an increase in fluorescence intensity at λex=350 nm and λem=450 nm. The assay was carried out in black 384 well plates in a final volume of 50 μl at 22° C. The assay conditions contained the following: 25 mM piperazine buffer pH 5.0; 50 mM NaCl, 5 mM DTT; 0.01% (v/v) Triton X-100; 100 μM H-Gly-Arg-AMC and rhDPP1 (˜50 pM). […] Routinely, inhibitors were pre-incubated with rhDPP1 for 30-60 min prior to the addition of the peptide substrate to start the reaction for a further 60 min at 22° C.
Consider `Cc1noc2ccc(-c3ccc(C[C@@H](C#N)NC(=O)[C@@H]4CNCCCO4)cc3)cc12` [Example 5, (2S)-N-{(1S)-1-Cyano-2-[4-(3-methyl-1,2-benzoxazol-5-yl)phenyl]ethyl}-1,4-oxazepane-2-carboxamide], for which the “DPP1 activity, pIC50” value is given as 7.79.
The same measure, in the same setting: to `N#C[C@H](Cc1ccc(-c2ccc(C(F)(F)F)cc2)cc1)NC(=O)[C@@H]1CNCCCO1` [Example 6, (2S)-N-{(1S)-1-Cyano-2-[4′-(trifluoromethyl)biphenyl-4-yl]ethyl}-1,4-oxazepane-2-carboxamide] belongs 7.44; to `N#C[C@H](Cc1ccc(-c2ccc(F)c(F)c2)cc1)NC(=O)[C@@H]1CNCCCO1` [Example 7, (2S)-N-[(1S)-1-Cyano-2-(3′,4′-difluorobiphenyl-4-yl)ethyl]-1,4-oxazepane-2-carboxamide], 7.16.
The same measure, in the same setting: the result for `N#Cc1ccc(-c2ccc(C[C@@H](C#N)NC(=O)[C@@H]3CNCCCO3)cc2)cn1` [Example 8, (2S)-N-{(1S)-1-Cyano-2-[4-(6-cyanopyridin-3-yl)phenyl]ethyl}-1,4-oxazepane-2-carboxamide] reads 7.06; that for `CN1C(=O)CSc2ccc(-c3ccc(C[C@@H](C#N)NC(=O)[C@@H]4CNCCCO4)cc3)cc21` [Example 9, (2S)-N-{(1S)-1-Cyano-2-[4-(4-methyl-3-oxo-3,4-dihydro-2H-1,4-benzothiazin-6-yl)phenyl]ethyl}-1,4-oxazepane-2-carboxamide], 7.89; that for `CCn1c(=O)oc2c(C)cc(-c3ccc(C[C@@H](C#N)NC(=O)[C@@H]4CNCCCO4)cc3)cc21` [Example 10, (2S)-N-{(1S)-1-Cyano-2-[4-(3-ethyl-7-methyl-2-oxo-2,3-dihydro-1,3-benzoxazol-5-yl)phenyl]ethyl}-1,4-oxazepane-2-carboxamide], 7.67.
Consider `CC(C)(O)Cn1c(=O)oc2ccc(-c3ccc(C[C@@H](C#N)NC(=O)[C@@H]4CNCCCO4)cc3)cc21` [Example 11, (2S)-N-[(1S)-1-Cyano-2-{4-[3-(2-hydroxy-2-methylpropyl)-2-oxo-2,3-dihydro-1,3-benzoxazol-5-yl]phenyl}ethyl]-1,4-oxazepane-2-carboxamide], for which the “DPP1 activity, pIC50” value is 7.05.
`N#C[C@H](Cc1ccc(-c2cc(F)c3oc(=O)n(CC(F)F)c3c2)cc1)NC(=O)[C@@H]1CNCCCO1` [Example 12, (2S)-N-[(1S)-1-Cyano-2-{4-[3-(2,2-difluoroethyl)-7-fluoro-2-oxo-2,3-dihydro-1,3-benzoxazol-5-yl]phenyl}ethyl]-1,4-oxazepane-2-carboxamide]: the “DPP1 activity, pIC50” value stood at 8.0.
On the same count and under the same terms, the result for `CN1C(=O)C(F)(F)c2ccc(-c3ccc(C[C@@H](C#N)NC(=O)[C@@H]4CNCCCO4)cc3)cc21` [Example 14, (2S)-N-{(1S)-1-Cyano-2-[4-(3,3-difluoro-1-methyl-2-oxo-2,3-dihydro-1H-indol-6-yl)phenyl]ethyl}-1,4-oxazepane-2-carboxamide] reads 7.78.
Same read-out and setting: the result for `Cn1c(=O)oc2c(F)cc(-c3ccc(C[C@@H](C#N)NC(=O)[C@@H]4CNCCCO4)cc3)cc21` [Example 15, (2S)-N-{(1S)-1-Cyano-2-[4-(7-fluoro-3-methyl-2-oxo-2,3-dihydro-1,3-benzoxazol-5-yl)phenyl]ethyl}-1,4-oxazepane-2-carboxamide] reads 8.29.

The same assay, now with this note: Test A1 (Examples 1-35); rhDPP1 ~50 pM, 100 μM H-Gly-Arg-AMC, pH 5.0, 22° C.; read-out: DPP1 activity, pIC50 (converted).
`N#Cc1ccc(-c2ccc(C[C@@H](C#N)NC(=O)C3CNCCCO3)cc2)cc1` (mixture of isomers) [Example 34, Diastereomeric mixture of (2S)-N-[(1S)-1-cyano-2-(4′-cyanobiphenyl-4-yl)ethyl]-1,4-oxazepane-2-carboxamide and (2R)—N-[(1S)-1-cyano-2-(4′-cyanobiphenyl-4-yl)ethyl]-1,4-oxazepane-2-carboxamide]: the IC50 is 0.0603 µM.
